Tested on: HCV 1b genotype
Test: HCV Replicon assay (HCV-neo replicon cells, wild-type)
Type: cell-based
Conditions: HCV 1b genotype replicon
Description: An HCV Replicon assay was utilized in the present disclosure, and was prepared, conducted and validated as described in commonly owned PCT/US2006/022197 and in O'Boyle et. al. Antimicrob Agents Chemother. 2005 April; 49 (4):1346-53. Assay methods incorporating luciferase reporters have also been used as described (Apath.com).
HCV-neo replicon cells and replicon cells containing mutations in the NS5A region were used to test the currently described family of compounds. The compounds were determined to have more than 10-fold less inhibitory activity on cells containing mutations than wild-type cells. Thus, the compounds of the present disclosure can be effective in inhibiting the function of the HCV NS5A protein and are understood to be as effective in combinations as previously described in application PCT/US2006/022197 and commonly owned WO/O4014852. Further, the compounds of the present disclosure can be effective against the HCV 1b genotype. It should also be understood that the compounds of the present disclosure can inhibit multiple genotypes of HCV. […] In one embodiment, compounds of the present disclosure are inhibitory versus 1a, 1b, 2a, 2b, 3a, 4a, and 5a genotypes.

[1] = Hepatitis C virus, class symbols
[2] = Hepatitis C virus, numeric values

Structure (SMILES): COC(=O)N[C@@H](C(=O)N1[C@@H]2C[C@@H]2C[C@H]1c1nc2cc(-c3ccc(Oc4cccc5[nH]c([C@@H]6C[C@H]7C[C@H]7N6C(=O)[C@H](NC(=O)OC)C(C)C)nc45)cc3)ccc2[nH]1)C(C)C [Example V7, methyl ((1R)-1-(((1R,3S,5R)-3-(4-(4-(2-((1R,3S,5R)-2-((2R)-2-(methoxycarbonyl)amino)-3-methylbutanoyl)-2-azabicyclo[3.1.0]hex-3-yl)-1H-benzimidazol-5-yl)phenoxy)-1H-benzimidazol-2-yl)-2-azabicyclo[3.1.0]hex-2-yl)carbonyl)-2-methylpropyl) carbamate]
- EC50 (class symbols): 4.57 to 99 nM

Structure (SMILES): COC(=O)N[C@@H](C)C(=O)N1[C@@H]2C[C@@H]2C[C@H]1c1nc2cc(-c3ccc(Oc4cccc5[nH]c([C@@H]6C[C@H]7C[C@H]7N6C(=O)[C@H](C)NC(=O)OC)nc45)cc3)ccc2[nH]1 [Example V8, methyl ((1S)-2-((1R,3S,5R)-3-(5-(4-((2-((1R,3S,5R)-2-(N-(methoxycarbonyl)-L-alanyl)-2-azabicyclo[3.1.0]hex-3-yl)-1H-benzimidazol-4-yl)oxy)phenyl)-1H-benzimidazol-2-yl)-2-azabicyclo[3.1.0]hex-2-yl)-1-methyl-2-oxoethyl) carbamate]
- EC50 (class symbols): < 4.57 nM

Structure (SMILES): CC(=O)N1CCC[C@H]1c1nc2ccc(C#Cc3ccc4[nH]c([C@@H]5CCCN5C(=O)c5cccs5)nc4c3)cc2[nH]1 [Example M54.24, 5-((2-((2S)-1-acetyl-2-pyrrolidinyl)-1H-benzimidazol-6-yl)ethynyl)-2-((2S)-1-(2-thienylcarbonyl)-2-pyrrolidinyl)-1H-benzimidazole]
- EC50 [1]: 4.57 to 99 nM

Structure (SMILES): O=C(c1cccs1)N1CCC[C@H]1c1nc2cc(C#Cc3ccc4[nH]c([C@@H]5CCCN5C(=O)c5cccs5)nc4c3)ccc2[nH]1 [Example M10, 5,5′-(1,2-ethynediyl)bis(2-((2S)-1-(2-thienylcarbonyl)-2-pyrrolidinyl)-1H-benzimidazole)]
- EC50 [2]: 10 nM

Structure (SMILES): C[C@@H](C(=O)N1CCC[C@H]1c1nc2cc(C#Cc3ccc4[nH]c([C@@H]5CCCN5C(=O)[C@H](C)c5ccccc5)nc4c3)ccc2[nH]1)c1ccccc1 [Example M1, 5,5′-(1,2-ethynediyl)bis(2-((2S)-1-((2R)-2-phenylpropanoyl)-2-pyrrolidinyl)-1H-benzimidazole)]
- EC50 [1]: < 4.57 nM

Structure (SMILES): COC(=O)N[C@H](C)C(=O)N1CCC[C@H]1c1nc2cc(C#Cc3ccc4[nH]c([C@@H]5CCCN5C(=O)[C@@H](C)NC(=O)OC)nc4c3)ccc2[nH]1 [Example M26, methyl ((1R)-2-((2S)-2-(5-((2-((2S)-1-(N-(methoxycarbonyl)-D-alanyl)-2-pyrrolidinyl)-1H-benzimidazol-5-yl)ethynyl)-1H-benzimidazol-2-yl)-1-pyrrolidinyl)-1-methyl-2-oxoethyl)carbamate]
- EC50 [1]: < 4.57 nM

Structure (SMILES): COC(=O)N[C@@H](C(=O)N1[C@@H]2C[C@@H]2C[C@H]1c1nc2cc(Oc3cccc(-c4ccc5[nH]c([C@@H]6C[C@H]7C[C@H]7N6C(=O)[C@H](NC(=O)OC)C(C)C)nc5c4)c3)ccc2[nH]1)C(C)C [Example V3, methyl ((1R)-1-(((1R,3S,5R)-3-(5-(3-(2-((1R,3S,5R)-2-((2R)-2-((methoxycarbonyl)amino)-3-methylbutanoyl)-2-azabicyclo[3.1.0]hex-3-yl)-1H-benzimidazol-5-yl)phenoxy)-1H-benzimidazol-2-yl)-2-azabicyclo[3.1.0]hex-2-yl)carbonyl)-2-methylpropyl) carbamate]
- EC50 (class symbols): 4.57 to 99 nM

Structure (SMILES): O=C(Cc1ccccc1)N1CCC[C@H]1c1nc2cc(C#CC#Cc3ccc4[nH]c([C@@H]5CCCN5C(=O)Cc5ccccc5)nc4c3)ccc2[nH]1 [Example M57, 5,5′-(1,3-butadiyne-1,4-diyl)bis(2-((2S)-1-(phenylacetyl)-2-pyrrolidinyl)-1H-benzimidazole)]
- EC50 [1]: < 4.57 nM

Structure (SMILES): CC(=O)N1CCC[C@H]1c1nc2ccc(C#Cc3ccc4[nH]c([C@@H]5CCCN5C(=O)C5CC5)nc4c3)cc2[nH]1 [Example M54.30, 5-((2-((2S)-1-acetyl-2-pyrrolidinyl)-1H-benzimidazol-6-yl)ethynyl)-2-((2S)-1-(cyclopropyl-carbonyl)-2-pyrrolidinyl)-1H-benzimidazole]
- EC50 [1]: 100 to 999 nM

Structure (SMILES): O=C(Cc1ccccn1)N1CCC[C@H]1c1nc2cc(CCc3ccc4[nH]c([C@@H]5CCCN5C(=O)Cc5ccccn5)nc4c3)ccc2[nH]1 [Example M43, 5,5′-(1,2-ethanediyl)bis(2-((2S)-1-(2-pyridinylacetyl)-2-pyrrolidinyl)-1H-benzimidazole)]
- EC50 (class symbols): 4.57 to 99 nM

Structure (SMILES): O=C(C(c1ccccc1)N1CCC(O)CC1)N1CCC[C@H]1c1nc2cc(-c3cnc(-c4cccc5[nH]c([C@@H]6CCCN6C(=O)C(c6ccccc6)N6CCC(O)CC6)nc45)o3)ccc2[nH]1 (stereo partly drawn) [Example J13, 1-(2-((2S)-2-(4-(5-(2-((2S)-1-((4-hydroxy-1-piperidinyl) (phenyl)acetyl)-2-pyrrolidinyl)-1H-benzimidazol-5-yl)-1,3-oxazol-2-yl)-1H-benzimidazol-2-yl)-1-pyrrolidinyl)-2-oxo-1-phenylethyl)-4-piperidinol]
- EC50 [1]: < 4.57 nM

Structure (SMILES): CNc1ccccc1C(=O)N1CCC[C@H]1c1nc2cc(C#Cc3ccc4[nH]c([C@@H]5CCCN5C(=O)[C@H]5CCCO5)nc4c3)ccc2[nH]1 [Example M54.11, N-methyl-2-(((2S)-2-(5-((2-((2S)-1-((2R)-tetrahydro-2-furanylcarbonyl)-2-pyrrolidinyl)-1H-benzimidazol-5-yl)ethynyl)-1H-benzimidazol-2-yl)-1-pyrrolidinyl)carbonyl)aniline]
- EC50 [1]: 4.57 to 99 nM

Structure (SMILES): COC(=O)N[C@H](C(=O)N1CCC[C@H]1c1nc2cc(-c3cnc(-c4cccc5[nH]c([C@@H]6CCCN6C(=O)[C@@H](NC(=O)OC)C(C)C)nc45)o3)ccc2[nH]1)C(C)C [Example J10, methyl ((1S)-1-(((2S)-2-(4-(5-(2-((2S)-1-((2S)-2-(methoxy-carbonyl)amino)-3-methyl-butanoyl)-2-pyrrolidinyl)-1H-benzimidazol-5-yl)-1,3-oxazol-2-yl)-1H-benzimidazol-2-yl)-1-pyrrolidinyl)carbonyl)-2-methylpropyl) carbamate]
- EC50 [2]: 0.007 nM

Structure (SMILES): CC(=O)N1CCC[C@H]1c1nc2ccc(C#Cc3ccc4[nH]c([C@@H]5CCCN5C(=O)c5cccnc5)nc4c3)cc2[nH]1 [Example M54.22, 5-((2-((2S)-1-acetyl-2-pyrrolidinyl)-1H-benzimidazol-6-yl)ethynyl)-2-((2S)-1-(3-pyridinylcarbonyl)-2-pyrrolidinyl)-1H-benzimidazole]
- EC50 [1]: 100 to 999 nM

Structure (SMILES): COC(=O)N[C@H](C(=O)N1CCC[C@H]1c1nc2cc(-c3cnc(-c4ccc5[nH]c([C@@H]6CCCN6C(=O)[C@@H](NC(=O)OC)C(C)C)nc5c4)o3)ccc2[nH]1)C(C)C [Example J19, methyl ((1S)-1-(((2S)-2-(5-(2-(2-((2S)-1-((2S)-2-((methoxy-carbonyl)amino)-3-methyl-butanoyl)-2-pyrrolidinyl)-1H-benzimidazol-5-yl)-1,3-oxazol-5-yl)-1H-benzimidazol-2-yl)-1-pyrrolidinyl)carbonyl)-2-methylpropyl) carbamate]
- EC50 (class symbols): < 4.57 nM

Structure (SMILES): COc1cccc2c(C(=O)N3CCC[C@H]3c3nc4cc(-c5cnc(-c6ccc7nc([C@@H]8CCCN8C(=O)c8nc(Cl)cc9c(OC)cccc89)[nH]c7c6)o5)ccc4[nH]3)nc(Cl)cc12 [Example J22, 3-chloro-1-(((2S)-2-(5-(2-(2-((2S)-1-((3-chloro-5-methoxy-1-isoquinolinyl)carbonyl)-2-pyrrolidinyl)-1H-benzimidazol-6-yl)-1,3-oxazol-5-yl)-1H-benzimidazol-2-yl)-1-pyrrolidinyl)carbonyl)-5-methoxy-isoquinoline]
- EC50 [1]: 1000 to 10000 nM
